From US4925968A, “N-acyl-N-naphthoylglycines as aldose reductase inhibitors” (American Home Products Corporation, priority 1989, dated 1990)

System: aldose reductase
Test: galactitol (dulcitol) accumulation in lens, sciatic nerve and diaphragm of galactosemic rats
Assay type: in vivo, rat (Sprague-Dawley, male)
Settings: 4 days; for % Lowering dulcitol accumulation IN VIVO, D: diaphragm; for % Lowering dulcitol accumulation IN VIVO, L: lens
Description: Such experiments are exemplified hereinbelow after the listing of the following general comments pertaining to these experiments: (a) Four or more groups of six male rats, 50-70 g, Sprague-Dawley strain, were used. The first group, the control group, was fed a mixture of laboratory chow (rodent Laboratory Chow, Purina) and glucose at 20% (w/w %) concentration. […] The test compound was either admixed to the diet or administered by gavage. In experiments involving compound administration in the diet, the average dose administered was calculated from the actual food intake of the animals in each group. The concentration of galactose in the diet of the treated groups was the same as that for the untreated galactosemic group. (b) After four days, the animals were killed by decapitation. The eyeballs were removed and punctured with a razor blade; the freed lenses were rolled gently on filter paper and weighed. The sciatic nerves were dissected as completely as possible and weighed. Both tissues when frozen can be kept up to two weeks before being analyzed for galactitol. […] Only two minor reagent changes were made: (a) The rinsing mixture was an aqueous 5% (w/v) trichloroacetic acid solution and (b) the stock solution was prepared by dissolving 25 mg of dulcitol in 100 mL of an aqueous trichloroacetic acid solution. [N.B.: For each experiment the average value found in the tissue from rats fed the glucose diet was subtracted from the individual values found in the corresponding tissue in galactose-fed rats to obtain the amount of polyol accumulated.] […] In the present case the procedure of Hayman and Kinoshita was modified in that the final chromatography step was omitted in the preparation of the enzyme from bovine lens. […] The figures under L, N, and D represent the percentage decrease of galactitol accumulation in the tissues of the lens, sciatic nerve, and diaphragm, respectively, for treated rats as compared to untreated rats.

**Q.** Which “% Lowering dulcitol accumulation IN VIVO, D” value (105 mg/kg) does the source give for `COc1ccc2c(C(=O)N(CC(=O)O)C(=O)OCC(C)(C)C)cccc2c1C(F)(F)F` [Example 5] here?
**A.** The value was “N.S”.

**Q.** What about the “% Lowering dulcitol accumulation IN VIVO, L” value (105 mg/kg) of the same compound?
**A.** The value was “N.S”.

**Q.** What does the source list for `O=CN(CC(=O)O)C(=O)c1cccc2c(Br)cccc12` [Example 14]?
**A.** % Lowering dulcitol accumulation IN VIVO, D (104 mg/kg): 17%; % Lowering dulcitol accumulation IN VIVO, L (104 mg/kg): N.S.

**Q.** `COC(=O)N(CC(=O)O)C(=O)c1cccc2c(Br)cccc12` [Example 12] was tested. Which “% Lowering dulcitol accumulation IN VIVO, D” value (102 mg/kg) did it give?
**A.** The value was 24%.

**Q.** And the “% Lowering dulcitol accumulation IN VIVO, L” value (102 mg/kg)?
**A.** Its value is “N.S”.

**Q.** What does the source list for `CCCOC(=O)N(CC(=O)O)C(=O)c1cccc2c(C(F)(F)F)c(OC)ccc12` [Example 3]?
**A.** % Lowering dulcitol accumulation IN VIVO, D (48 mg/kg): N.S.; % Lowering dulcitol accumulation IN VIVO, L (48 mg/kg): N.S.

**Q.** How did the “% Lowering dulcitol accumulation IN VIVO, D” value (50 mg/kg) turn out when `COc1ccc2c(C(=O)N(CC(=O)O)C(=O)c3ccccc3)cccc2c1C(F)(F)F` [Example 10, N-Benzoyl-N-[[6-methoxy-5-(trifluoromethyl)-1-naphthalenyl]carbonyl]glycine] was run?
**A.** Its value is “N.S”.

**Q.** And the “% Lowering dulcitol accumulation IN VIVO, L” value (50 mg/kg)?
**A.** Its value is “N.S”.

**Q.** Which results are given for `COc1ccc2c(C(=O)N(C=O)CC(=O)O)cccc2c1C(F)(F)F` [Example 8, N-Formyl-N-[[6-methoxy-5-(trifluoromethyl)-1-naphthalenyl]carbonyl]glycine]?
**A.** % Lowering dulcitol accumulation IN VIVO, D (107 mg/kg): 82%; % Lowering dulcitol accumulation IN VIVO, L (107 mg/kg): 13%

**Q.** With `CCOC(=O)N(CC(=O)O)C(=O)c1cccc2c(C(F)(F)F)c(OC)ccc12` [Example 1, N-[[6-Methoxy-5-(trifluoromethyl)-1-naphthalenyl]carbonyl]-N-[(ethoxy)carbonyl]glycine] as the compound, how does the “% Lowering dulcitol accumulation IN VIVO, D” value (57 mg/kg) read?
**A.** Its value is 70%.

**Q.** And the “% Lowering dulcitol accumulation IN VIVO, D” value (97 mg/kg)?
**A.** The value was 83%.

**Q.** What about the “% Lowering dulcitol accumulation IN VIVO, L” value (57 mg/kg) of the same compound?
**A.** The value was 19%.

**Q.** What about the “% Lowering dulcitol accumulation IN VIVO, L” value (97 mg/kg) of the same compound?
**A.** Its value is 12%.

**Q.** Which results are given for `COc1ccc2c(C(=O)N(CC(=O)O)C(C)=O)cccc2c1C(F)(F)F` [Example 9]?
**A.** % Lowering dulcitol accumulation IN VIVO, D (100 mg/kg): 39%; % Lowering dulcitol accumulation IN VIVO, L (100 mg/kg): N.S.

**Q.** Which “% Lowering dulcitol accumulation IN VIVO, D” value (107 mg/kg) does the source give for `COc1ccc2c(C(=O)N(CC(=O)O)C(=O)OCc3ccc(Cl)c([N+](=O)[O-])c3)cccc2c1C(F)(F)F` [Example 7] here?
**A.** Its value is “N.S”.

**Q.** What about the “% Lowering dulcitol accumulation IN VIVO, L” value (107 mg/kg) of the same compound?
**A.** The value was “N.S”.

**Q.** Which results are given for `COc1ccc2c(C(=O)N(CC(=O)O)C(=O)OCc3ccccc3)cccc2c1C(F)(F)F` [Example 6]?
**A.** % Lowering dulcitol accumulation IN VIVO, D (67 mg/kg): N.S.; % Lowering dulcitol accumulation IN VIVO, L (67 mg/kg): N.S.

**Q.** How did the “% Lowering dulcitol accumulation IN VIVO, D” value (111 mg/kg) turn out when `O=C(O)CN(C(=O)c1ccccc1)C(=O)c1cccc2c(Br)cccc12` [Example 16] was run?
**A.** The value was “N.S”.

**Q.** What about the “% Lowering dulcitol accumulation IN VIVO, L” value (111 mg/kg) of the same compound?
**A.** The value was “N.S”.

**Q.** For `COC(=O)N(CC(=O)O)C(=O)c1cccc2c(C(F)(F)F)c(OC)ccc12` [Example 2, N-[[6-Methoxy-5-(trifluoromethyl)-1-naphthalenyl]-carbonyl]-N-[(methoxy)carbonyl]glycine], which “% Lowering dulcitol accumulation IN VIVO, D” value (48 mg/kg) is on record?
**A.** Its value is 54%.

**Q.** And the “% Lowering dulcitol accumulation IN VIVO, L” value (48 mg/kg)?
**A.** Its value is “N.S”.

**Q.** Which “% Lowering dulcitol accumulation IN VIVO, D” value (dose (mg/kg) printed as N.S.) does the source give for `COc1ccc2c(C(=O)N(CC(=O)O)C(=O)OC(C)C)cccc2c1C(F)(F)F` [Example 4] here?
**A.** Its value is “N.S”.

**Q.** What about the “% Lowering dulcitol accumulation IN VIVO, L” value (dose (mg/kg) printed as N.S.) of the same compound?
**A.** The value was “N.S”.

**Q.** How did the “% Lowering dulcitol accumulation IN VIVO, D” value (112 mg/kg) turn out when `CC(=O)N(CC(=O)O)C(=O)c1cccc2c(Br)cccc12` [Example 15] was run?
**A.** Its value is “N.S”.

**Q.** And the “% Lowering dulcitol accumulation IN VIVO, L” value (112 mg/kg)?
**A.** The value was “N.S”.
